According to PubChem BioAssay (NCI):
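Briefly, cells in 96-well plates were exposed to five compound concentrations for 48 h, and endpoints were estimated by linear interpolation. Definition used: TGI = concentration required for complete inhibition of growth.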

Columns and labels:
Assay in all cases: NCI anticancer screen, dose series, 48 h
786-0 renal = tested on: 786-0 renal
A549 NSCLC = tested on: A549 NSCLC
DU-145 prostate = tested on: DU-145 prostate
K-562 leukemia = tested on: K-562 leukemia
NCI-H460 lung = tested on: NCI-H460 lung
OVCAR-4 ovarian = tested on: OVCAR-4 ovarian
OVCAR-5 ovarian = tested on: OVCAR-5 ovarian
PC-3 prostate = tested on: PC-3 prostate
RPMI-8226 leukemia = tested on: RPMI-8226 leukemia
SF-539 CNS = tested on: SF-539 CNS
SK-MEL-2 melanoma = tested on: SK-MEL-2 melanoma
SK-MEL-28 melanoma = tested on: SK-MEL-28 melanoma

| Structure (SMILES) | TGI (786-0 renal) | TGI (A549 NSCLC) | TGI (DU-145 prostate) | TGI (K-562 leukemia) | TGI (NCI-H460 lung) | TGI (OVCAR-4 ovarian) | TGI (OVCAR-5 ovarian) | TGI (PC-3 prostate) | TGI (RPMI-8226 leukemia) | TGI (SF-539 CNS) | TGI (SK-MEL-2 melanoma) | TGI (SK-MEL-28 melanoma) |
| --- | --- | --- | --- | --- | --- | --- | --- | --- | --- | --- | --- | --- |
| CC1(C)CC(=O)C2=C(C1)c1c(ccc3ccccc13)NC2c1cn(Cc2ccc(Cl)cc2)c2ccccc12 (centres undefined) | > 100 µM | > 100 µM | > 100 µM | > 100 µM | > 100 µM | > 100 µM | > 100 µM | > 100 µM | > 100 µM | > 100 µM | > 100 µM | – |
| CC1(C)N=C(C(N)=O)c2ncn(-c3ccccc3)c2N1 | > 100 µM | > 100 µM | > 100 µM | > 100 µM | > 100 µM | > 100 µM | > 100 µM | > 100 µM | > 100 µM | > 100 µM | > 100 µM | > 100 µM |
| CC(=O)OCC1OC(n2c3c(c(-c4ccco4)c(C#N)c2=S)CCC3)C(OC(C)=O)C(OC(C)=O)C1OC(C)=O (centres undefined) | > 100 µM | > 100 µM | > 100 µM | > 100 µM | > 100 µM | > 100 µM | > 100 µM | > 100 µM | > 100 µM | > 100 µM | > 100 µM | > 100 µM |
| O=C1/C(=C\c2cccc(Oc3ccccc3)c2)S(=O)(=O)C(c2ccccc2)N1c1ccc(Cl)cc1 (centres undefined) | 27 µM | > 100 µM | 37.4 µM | 56.9 µM | > 100 µM | 52.3 µM | 88.7 µM | > 100 µM | > 100 µM | 41.7 µM | 34.5 µM | 34 µM |
| C[C@H](Nc1c(O)c2c(c(O)c1Cl)C(=O)C=CC2=O)C(=O)Nc1ccc([N+](=O)[O-])cc1 | 3.23 µM | 3.64 µM | 3.22 µM | > 10 µM | 6.29 µM | 3.14 µM | 3.51 µM | 8.89 µM | > 10 µM | 4.2 µM | 9.1 µM | 4.02 µM |
| S=C(N/N=C(/c1ccccc1)c1ccccn1)Nc1ccccc1Cl | 13.1 µM | 13 µM | 17.8 µM | > 5.82 µM | 6.24 µM | 18.2 µM | 6.94 µM | 13.3 µM | > 7.31 µM | 6.59 µM | 1.8 µM | 19.1 µM |
| O=c1[nH]c(Nc2cccc(C(F)(F)F)c2)nc2nc[nH]c12 | > 100 µM | > 100 µM | > 100 µM | > 100 µM | – | > 100 µM | > 100 µM | > 100 µM | > 100 µM | > 100 µM | > 100 µM | > 100 µM |
| CC1CC[C@@]2(OC1)OC1C[C@H]3[C@@H]4C/C(=N\N(C)C)[C@@]5(O)CC(O)CC[C@]5(C)[C@H]4CC[C@]3(C)C1[C@@H]2C (some centres undefined) | > 100 µM | > 100 µM | > 100 µM | > 100 µM | > 100 µM | > 100 µM | > 100 µM | > 100 µM | > 100 µM | > 100 µM | > 100 µM | > 100 µM |
| COc1cc(-c2oc3c(OC)c(O)c(OC)c(O)c3c(=O)c2OC)cc(O)c1OC | > 100 µM | > 100 µM | > 100 µM | > 100 µM | – | > 100 µM | > 100 µM | > 100 µM | > 100 µM | 45.4 µM | > 100 µM | > 100 µM |
| N#Cc1c(-c2ccc([N+](=O)[O-])cc2)cc(-c2ccc(Nc3ccnc4cc(C(F)(F)F)ccc34)cc2)nc1N | 15.6 µM | 26.8 µM | > 43.3 µM | 19.1 µM | > 66.5 µM | 28.1 µM | > 73.8 µM | 56.9 µM | > 54.5 µM | > 63.8 µM | > 59.7 µM | 59.8 µM |
| CC1=C2c3c(C)ccc4ccc(C)c(c34)C2(O)C(C)C1=O (centres undefined) | > 100 µM | > 100 µM | > 100 µM | > 100 µM | > 100 µM | > 100 µM | > 100 µM | > 100 µM | > 100 µM | > 100 µM | > 100 µM | > 100 µM |
| Cc1c(CCOC=O)c(=O)[nH]c2nncn12 | > 100 µM | > 100 µM | > 100 µM | > 100 µM | > 100 µM | > 100 µM | > 100 µM | > 100 µM | > 100 µM | > 100 µM | – | > 100 µM |
| CC(C)(C)c1ccc(-c2nc3ccc([N+](=O)[O-])cc3c(=O)o2)cc1 | > 100 µM | > 100 µM | > 100 µM | 71.3 µM | > 100 µM | 75.2 µM | > 100 µM | 72.5 µM | > 100 µM | 43.9 µM | 47 µM | 97.1 µM |
| CC(=O)C(=[N+]=[N-])C(=O)OC(C)(C)C#N | > 10 µM | > 10 µM | > 10 µM | > 10 µM | > 10 µM | > 10 µM | > 10 µM | > 10 µM | > 10 µM | > 10 µM | > 10 µM | > 10 µM |
| Cc1ccc(S(=O)(=O)NN=C2CCCCCCCCCCC2)cc1 | > 100 µM | > 100 µM | > 100 µM | > 100 µM | > 100 µM | > 100 µM | > 100 µM | > 100 µM | > 100 µM | > 100 µM | > 100 µM | > 100 µM |
| CCCCn1c(C)c(C(=O)OCC)s/c1=N/Nc1nc2ccccc2nc1-c1ccccc1 | > 100 µM | > 100 µM | 94.1 µM | > 100 µM | > 100 µM | > 100 µM | > 100 µM | > 100 µM | > 100 µM | > 100 µM | > 100 µM | > 100 µM |
| COC(=O)C1(Cc2ccc3c(c2)CCC3)Cc2ccc3c(c2C1O)CCC3 (centres undefined) | 28.6 µM | 37.3 µM | 46.4 µM | > 100 µM | 54.4 µM | 27.7 µM | – | 32.3 µM | 59.4 µM | 47.4 µM | – | 32.6 µM |
| CC1(c2nc3cc(Cl)c(Cl)cc3[nH]2)CCC(CO)C(C)(C)O1 (centres undefined) | > 100 µM | > 100 µM | > 100 µM | > 100 µM | – | > 100 µM | > 100 µM | 97.3 µM | > 100 µM | 70.5 µM | 90.4 µM | 92 µM |
